# No end group written: not given here.
# Tested on: human primary hepatocytes
# Assay: LDL uptake assay (BODIPY-labelled LDL, high content imaging)
# Format: cell-based
# Settings: 5 uM concentration, 4 h
# Experimental: The effects of putative cholesterol lowering peptides was assessed using LDL uptake assays in primary human hepatocytes from a pool of 10 healthy donors. Hepatocytes were treated with peptides as well as LDL-labelled BODIPY for 4 h. Cells were then fixed, permeabilized and imaged on an Opera Phenix high content imaging platform. LDL uptake was determined using BODIPY stain intensity.
# Human primary hepatocytes were seeded into 96-well PhenoVue plates at 37K/well density and recovered overnight. The next say, hepatocytes were treated with 5 uM peptide or null control (DMSO) as well as a BODIPY-labelled LDL (Invitrogen™ Image-iT™ Low Density Lipoprotein Uptake Kit, Bodipy FL, I34359). This assay is designed to specifically detect binding and uptake of LDL through the LDL receptor internalization pathway, allowing maximum control and flexibility in experimental design. Two controls were built into the system, unlabeled LDL and heparin. Unlabeled LDL provides an optional pre-treatment to occlude cell surface receptors in advance of probing with the labeled construct, while heparin is provided as an additional control to chelate the LDL in the solution phase outside of the cells, thus preventing binding and uptake of the labeled LDL. Metformin, a type 2 diabetes drug with cholesterol lowering effects, was used as a positive control for increased LDL uptake (FIG. 1). Following peptide, control, and LDL-BODIPY treatment, cells were incubated for 4 h in a 37 C incubator with 5% CO2. Following incubation, cells were fixed with 4% paraformaldehyde for 15 min. Cells were then permeabilized and stained with DAPI to visualize nuclei. Wells were then washed with HBSS and imaged using a Perkin Elmer Opera Phenix high content imaging platform (fluorescence) at 20× magnification with 9 fields per well. BODIPY spot intensity was quantified using the Harmony image analysis software.
row,LDL uptake in hepatocytes,Sequence
1,increasing LDL uptake,LVVRWAVLVFRSSTAALPRAAEAARRSEKWPKTSALGRRS [SEQ ID NO: 26888]
2,increasing LDL uptake,MMLPLWTFLERAMLLLISEVANRFKWSNGYTWKMPKA [SEQ ID NO: 36277]
3,increasing LDL uptake,MTAAVSLTRSPAISASCAASRSASPWAWPWTWF [SEQ ID NO: 75353]

# From patent US20250320254A1, “Compositions and Methods for Modulating Circulating Factors” (Flagship Pioneering Innovations VII, LLC, priority 2022, published 2025)
